# Data published in patent publication US12662489B2 (Sitryx Therapeutics Limited, priority 2023, dated 2026).
# How the values were obtained:
# [1] = molecular target: T1, MTHFD1 recombinant human enzyme (Homo sapiens, UniProt P11586); experiment: MTHFD1 inhibition assay (NAD(P)H-Glo luminescence); details: MTHFD1 IC50, recombinant human enzyme 200 nM, NADP, band
# T1 sequence (P11586 2-291 limits assumed): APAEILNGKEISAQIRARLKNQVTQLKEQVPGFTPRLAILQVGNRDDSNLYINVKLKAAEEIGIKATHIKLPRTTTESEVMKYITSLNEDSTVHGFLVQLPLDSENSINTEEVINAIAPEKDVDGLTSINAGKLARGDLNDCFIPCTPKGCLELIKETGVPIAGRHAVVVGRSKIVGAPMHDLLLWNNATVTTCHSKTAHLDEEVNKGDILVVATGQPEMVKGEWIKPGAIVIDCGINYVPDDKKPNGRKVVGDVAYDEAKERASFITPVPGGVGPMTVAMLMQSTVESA
# [2] = molecular target: T2, MTHFD2 recombinant human enzyme (Homo sapiens, UniProt P13995); experiment: MTHFD2 inhibition assay (NAD(P)H-Glo luminescence); details: for MTHFD1/MTHFD2 IC50 ratio: selectivity of MTHFD2 inhibition over MTHFD1, band
# T2 sequence (P13995 36-350): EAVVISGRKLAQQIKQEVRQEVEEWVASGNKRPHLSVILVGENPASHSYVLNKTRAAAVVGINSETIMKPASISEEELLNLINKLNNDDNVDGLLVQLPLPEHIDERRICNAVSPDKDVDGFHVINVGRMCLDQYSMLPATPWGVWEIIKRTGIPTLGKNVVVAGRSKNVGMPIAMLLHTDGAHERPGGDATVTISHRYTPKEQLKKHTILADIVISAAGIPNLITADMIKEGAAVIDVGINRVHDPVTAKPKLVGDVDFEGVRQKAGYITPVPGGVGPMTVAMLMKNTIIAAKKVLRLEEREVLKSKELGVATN
smiles,measurement,setting,value
"COC[C@H]1CN(c2cc(C)c3c4c(c(=O)oc3c2C)CN(C(=O)c2ccc(C(=O)NS(=O)(=O)N3CCCC3)c(O[C@@H]3C[C@@H]5C[C@@H]5C3)c2F)CC4)CCN1C [Example 35, 2-(((1R,3r,5S)-bicyclo[3.1.0]hexan-3-yl)oxy)-3-fluoro-4-(8-((R)-3-(methoxymethyl)-4-methylpiperazin-1-yl)-7,10-dimethyl-5-oxo-1,3,4,5-tetrahydro-2H-chromeno[3,4-c]pyridine-3-carbonyl)-N-(pyrrolidin-1-ylsulfonyl)benzamide]",IC50,[1],1 to 10 nM
same,IC50,[2],1 to 10 nM
same,MTHFD1/MTHFD2 IC50 ratio,[2],F (<3)
"COC[C@H]1CN(c2ccc3c4c(c(=O)oc3c2C)CN(C(=O)c2ccc(C(=O)NS(=O)(=O)N(C)C)c(N3C5CCC3CC5)c2)CC4)CCN1C [Example 16, (R)-2-(7-azabicyclo[2.2.1]heptan-7-yl)-N-(N,N-dimethylsulfamoyl)-4-(8-(3-(methoxymethyl)-4-methylpiperazin-1-yl)-7-methyl-5-oxo-1,3,4,5-tetrahydro-2H-chromeno[3,4-c]pyridine-3-carbonyl)benzamide]",IC50,[1],1 to 10 nM
same,IC50,[2],1 to 10 nM
same,MTHFD1/MTHFD2 IC50 ratio,[2],F (<3)
"COC[C@H]1CN(c2cc(Cl)c3c4c(c(=O)oc3c2C)CN(C(=O)c2cc(N(C)C)c(C(=O)NS(=O)(=O)N3CC5(COC5)C3)cc2F)CC4)CCN1C [Example 282, (R)-N-((2-oxa-6-azaspiro[3.3]heptan-6-yl)sulfonyl)-4-(10-chloro-8-(3-(methoxymethyl)-4-methylpiperazin-1-yl)-7-methyl-5-oxo-1,3,4,5-tetrahydro-2H-chromeno[3,4-c]pyridine-3-carbonyl)-2-(dimethylamino)-5-fluorobenzamide]",IC50,[1],100 to 1000 nM
same,IC50,[2],10 to 100 nM
same,MTHFD1/MTHFD2 IC50 ratio,[2],H (>9.0 to 30)
"COC[C@H]1CN(c2cc(C)c3c4c(c(=O)oc3c2C)CN(C(=O)c2ccc(C(=O)NS(=O)(=O)C3(C)CC3)c(N3C5CCC3CC5)c2F)CC4)CCN1C [Example 73, (R)-2-(7-azabicyclo[2.2.1]heptan-7-yl)-3-fluoro-4-(8-(3-(methoxymethyl)-4-methylpiperazin-1-yl)-7,10-dimethyl-5-oxo-1,3,4,5-tetrahydro-2H-chromeno[3,4-c]pyridine-3-carbonyl)-N-((1-methylcyclopropyl)sulfonyl)benzamide]",IC50,[1],1 to 10 nM
same,IC50,[2],1 to 10 nM
"COC[C@H]1CN(c2cc(C)c3c4c(c(=O)oc3c2C)CN(C(=O)c2ccc(C(=O)NS(=O)(=O)C3(C)CC3)c(N3CCC[C@H]3C)c2)CC4)CCN1C [Example 123, 4-(8-((R)-3-(methoxymethyl)-4-methylpiperazin-1-yl)-7,10-dimethyl-5-oxo-1,3,4,5-tetrahydro-2H-chromeno[3,4-c]pyridine-3-carbonyl)-N-((1-methylcyclopropyl)sulfonyl)-2-((R)-2-methylpyrrolidin-1-yl)benzamide]",IC50,[1],100 to 1000 nM
same,IC50,[2],10 to 100 nM
same,MTHFD1/MTHFD2 IC50 ratio,[2],F (<3)
"COC[C@H]1CN(c2cc(C)c3c4c(c(=O)oc3c2C)CN(C(=O)c2ccc(C(=O)NS(=O)(=O)N3CCCC3)c(OC3CCC(F)(F)CC3)c2)CC4)CCN1C [Example 99, (R)-2-((4,4-difluorocyclohexyl)oxy)-4-(8-(3-(methoxymethyl)-4-methylpiperazin-1-yl)-7,10-dimethyl-5-oxo-1,3,4,5-tetrahydro-2H-chromeno[3,4-c]pyridine-3-carbonyl)-N-(pyrrolidin-1-ylsulfonyl)benzamide]",IC50,[1],10 to 100 nM
same,IC50,[2],10 to 100 nM
same,MTHFD1/MTHFD2 IC50 ratio,[2],F (<3)
"COC[C@H]1CN(c2ccc3c4c(c(=O)oc3c2C)CN(C(=O)c2ccc(C(=O)NS(=O)(=O)N3CCCC3)c(O[C@@H]3C[C@@H]5C[C@@H]5C3)c2F)CC4)CCN1C [Example 63, 2-(((1R,3r,5S)-bicyclo[3.1.0]hexan-3-yl)oxy)-3-fluoro-4-(8-((R)-3-(methoxymethyl)-4-methylpiperazin-1-yl)-7-methyl-5-oxo-1,3,4,5-tetrahydro-2H-chromeno[3,4-c]pyridine-3-carbonyl)-N-(pyrrolidin-1-ylsulfonyl)benzamide]",IC50,[1],1 to 10 nM
same,IC50,[2],1 to 10 nM
same,MTHFD1/MTHFD2 IC50 ratio,[2],F (<3)
"COC[C@H]1CN(c2cc(C)c3c4c(c(=O)oc3c2C)CN(C(=O)c2ccc(C(=O)NS(=O)(=O)C3(C)CC3)c(N3CCC(F)(F)C3)c2)CC4)CCN1C [Example 81, (R)-2-(3,3-difluoropyrrolidin-1-yl)-4-(8-(3-(methoxymethyl)-4-methylpiperazin-1-yl)-7,10-dimethyl-5-oxo-1,3,4,5-tetrahydro-2H-chromeno[3,4-c]pyridine-3-carbonyl)-N-((1-methylcyclopropyl)sulfonyl)benzamide]",IC50,[1],10 to 100 nM
same,IC50,[2],1 to 10 nM
"CCOc1cc(C(=O)N2CCc3c(c(=O)oc4c(C)c(N5CCN(C)[C@@H](COC)C5)cc(Cl)c34)C2)c(F)cc1C(=O)NS(=O)(=O)C1(C)CC1 [Example 299, (R)-4-(10-chloro-8-(3-(methoxymethyl)-4-methylpiperazin-1-yl)-7-methyl-5-oxo-1,3,4,5-tetrahydro-2H-chromeno[3,4-c]pyridine-3-carbonyl)-2-ethoxy-5-fluoro-N-((1-methylcyclopropyl)sulfonyl)benzamide]",IC50,[1],100 to 1000 nM
same,IC50,[2],10 to 100 nM
same,MTHFD1/MTHFD2 IC50 ratio,[2],H (>9.0 to 30)
CCOc1c(C(=O)NS(=O)(=O)N2CC3CC3C2)ccc(C(=O)N2CCc3c(c(=O)oc4c(C)c(N5CCN(C)[C@@H](COC)C5)cc(C)c34)C2)c1F (stereo partly drawn) [Example 229],IC50,[1],10 to 100 nM
same,IC50,[2],10 to 100 nM
same,MTHFD1/MTHFD2 IC50 ratio,[2],G (^ 3 to 9.0)
"COC[C@H]1CN(c2cc(Cl)c3c4c(c(=O)oc3c2C)CN(C(=O)c2cc(OC)c(C(=O)NS(=O)(=O)N(C3CC3)C3CC3)cc2F)CC4)CCN1C [Example 297, (R)-4-(10-chloro-8-(3-(methoxymethyl)-4-methylpiperazin-1-yl)-7-methyl-5-oxo-1,3,4,5-tetrahydro-2H-chromeno[3,4-c]pyridine-3-carbonyl)-N-(N,N-dicyclopropylsulfamoyl)-5-fluoro-2-methoxybenzamide]",IC50,[1],100 to 1000 nM
same,IC50,[2],10 to 100 nM
same,MTHFD1/MTHFD2 IC50 ratio,[2],H (>9.0 to 30)
COC[C@H]1CN(c2cc(C)c3c4c(c(=O)oc3c2C)CN(C(=O)c2ccc(C(=O)NS(=O)(=O)N(C)C)c(OC3CCC3)c2C)CC4)CCN1C [Example 179],IC50,[1],100 to 1000 nM
same,IC50,[2],10 to 100 nM
same,MTHFD1/MTHFD2 IC50 ratio,[2],G (^ 3 to 9.0)
"COC[C@H]1CN(c2cc(C)c3c4c(c(=O)oc3c2C)CN(C(=O)c2cc(C(=O)NS(=O)(=O)N3CCCC3)cc(OC3CCC3)c2F)CC4)CCN1C [Example 166, (R)-3-cyclobutoxy-4-fluoro-5-(8-(3-(methoxymethyl)-4-methylpiperazin-1-yl)-7,10-dimethyl-5-oxo-1,3,4,5-tetrahydro-2H-chromeno[3,4-c]pyridine-3-carbonyl)-N-(pyrrolidin-1-ylsulfonyl)benzamide]",IC50,[1],> 5000 nM
same,IC50,[2],100 to 1000 nM
same,MTHFD1/MTHFD2 IC50 ratio,[2],G (^ 3 to 9.0)
"COC[C@H]1CN(c2ccc3c4c(c(=O)oc3c2C)CN(C(=O)c2ccc(C(=O)NS(=O)(=O)N(C)C(C)C)c(OC3CCCC3)c2F)CC4)CCN1C [Example 58, (R)-2-(cyclopentyloxy)-3-fluoro-N-(N-isopropyl-N-methylsulfamoyl)-4-(8-(3-(methoxymethyl)-4-methylpiperazin-1-yl)-7-methyl-5-oxo-1,3,4,5-tetrahydro-2H-chromeno[3,4-c]pyridine-3-carbonyl)benzamide]",IC50,[1],1 to 10 nM
same,IC50,[2],1 to 10 nM
"COC[C@H]1CN(c2ccc3c4c(c(=O)oc3c2)CN(C(=O)c2cc(N(C)C)c(C(=O)NS(=O)(=O)N3C5CCC3CC5)cc2F)CC4)CCN1C [Example 191, (R)-N-((7-azabicyclo[2.2.1]heptan-7-yl)sulfonyl)-2-(dimethylamino)-5-fluoro-4-(8-(3-(methoxymethyl)-4-methylpiperazin-1-yl)-5-oxo-1,3,4,5-tetrahydro-2H-chromeno[3,4-c]pyridine-3-carbonyl)benzamide]",IC50,[1],> 5000 nM
same,IC50,[2],100 to 1000 nM
same,MTHFD1/MTHFD2 IC50 ratio,[2],G (^ 3 to 9.0)
"COC[C@H]1CN(c2cc(C)c3c4c(c(=O)oc3c2C)CN(C(=O)c2ccc(C(=O)NS(=O)(=O)N(C)C)c(N3CCCC(F)(F)C3)c2)CC4)CCN1C [Example 77, (R)-2-(3,3-difluoropiperidin-1-yl)-N-(N,N-dimethylsulfamoyl)-4-(8-(3-(methoxymethyl)-4-methylpiperazin-1-yl)-7,10-dimethyl-5-oxo-1,3,4,5-tetrahydro-2H-chromeno[3,4-c]pyridine-3-carbonyl)benzamide]",IC50,[1],1 to 10 nM
same,IC50,[2],1 to 10 nM
same,MTHFD1/MTHFD2 IC50 ratio,[2],F (<3)
"COC[C@H]1CN(c2ccc3c4c(c(=O)oc3c2C)CN(C(=O)c2cc(N(C)C)c(C(=O)NS(=O)(=O)N3CCC5(CC3)CC5)cc2Cl)CC4)CCN1C [Example 190, (R)-N-((6-azaspiro[2.5]octan-6-yl)sulfonyl)-5-chloro-2-(dimethylamino)-4-(8-(3-(methoxymethyl)-4-methylpiperazin-1-yl)-7-methyl-5-oxo-1,3,4,5-tetrahydro-2H-chromeno[3,4-c]pyridine-3-carbonyl)benzamide]",IC50,[1],> 5000 nM
same,IC50,[2],100 to 1000 nM
same,MTHFD1/MTHFD2 IC50 ratio,[2],H (>9.0 to 30)
